Experiments:
[1] = test system: H3K27me3 in TER119+ erythroid lineage cells; assay: H3K27me3 level in TER119+ erythroid lineage cells from bone marrow (FACS, H3K27me3/H3 ratio); format: in vivo, CD-1 mice
Procedure: Female CD-1 mice (8 weeks old) were housed and handled in a temperature-controlled environment with a 12-h light/12-h dark cycle. A total of 25 mice were assigned to 5 groups by randomization based on body weight, followed by 5 days of treatment with vehicle (po, qd), 3 mg/kg Cpd. 73 (po, qd), 10 mg/kg Cpd. 73 (po, qd), 30 mg/kg Cpd. 73 (po, qd), or 90 mg/kg Cpd. 73 (po, qd). The protocols and procedures involving the care and use of animals were approved by the Institutional Animal Care and Use Committee (IACUC) of WuXiAppTec (Shanghai) Co., Ltd. (Shanghai, China).
Mice were euthanatized 4 hours post the last dose. Whole blood and bone marrow were collected. Bone marrow cells were flushed from femur and tibia with IMDM+/+ (IMDM, 10% heat inactivated FBS, 100 U/mL penicillin and 100 μg/mL streptomycin). Aggregate was removed by passing through 40 μm cell strainer. 5 mL DPBS was used to pellet the cells after centrifugation, and the cell number was counted. Whole blood was added with 1×RBC lysis buffer remove RBC (whole blood: 1×RBC lysis buffer=1:9), and mononuclear cells were collected by centrifugation. The cells were then washed with 1×DPBS for once and resuspended in 3 ml DPBS after centrifugation followed by cell number counting.
Bone marrow cells were stained with FITC-conjugated anti-mouse TER-119 antibody (Thermo Fisher, 11-5921-82) and eFluor 506-conjugated anti-mouse CD45 antibody (Thermo Fisher, 69-0451-82). TER-119+ cells were erythroid lineage cells. PBMC were stained with eFlour 450-conjugated anti-mouse CD11b antibody (Invitrogen, 48-0112-82), PerCP-eFluor710-conjugated anti-mouse CD3 antibody (Invitrogen, 46-0032-82), eFluor 506-conjugated anti-mouse CD45 antibody (Thermo Fisher, 69-0451-82). CD45+CD3−CD11b+ cells were monocytes from PBMC.
After washing, centrifugation and fixation, the cells were permeabilized and further incubated with antibodies of H3K27m3 (Tri-Methyl-Histone H3 (Lys27) (C36B11) Rabbit mAb (PE Conjugate), CST, 40724S) and H3 (Histone H3 (D1H2) XP® Rabbit mAb (Alexa Fluor®647 Conjugate), CST, 12230S), followed by FACS analysis to quantify the mean fluorescence intensity of target cells. The ratio between the fluorescence intensity of H3K27me3 and H3 were used to reflect the level of H3K27me3 in the cells.

[2] = test system: DSS induced IBD in C57BL/6 mice; assay: DSS induced inflammatory bowel disease (IBD) model; format: in vivo; details: 90 mg/kg po qd day 0 to day 7
From the text: Female C57BL/6 mice (8 weeks old) were obtained from Beijing Vital River Laboratory Animal Co. Ltd. Animals were housed and handled in a temperature-controlled environment with a 12-h light/12-h dark cycle. A total of 30 mice were assigned to 3 groups by randomization based on body weight.
On Day 0, colitis was induced by administration of 3% DSS (dextran sodium sulfate, molecular weight 36,000-50,000) in drinking water ad libitum for 8 days. 8-week-old mice were divided into 3 groups: Group 2, DSS treatment group (vehicle, po, qd, from day 0 to day 7); Group 3, DSS with 90 mg/kg Cpd. 73 (po, qd, from day 0 to day 7); and the Group 1 (G1) Naive group, the mice were provided drinking water without DSS. The protocols and procedures involving the care and use of animals were approved by the Institutional Animal Care and Use Committee (IACUC) at Wuxi Apptec (Shanghai, China).
At the end of the study, the animals were euthanized, dissected and the entire colon was quickly removed and gently cleared of feces.
At the end of the study (day 8), all the animals were sacrificed by CO2. The colon was Swiss-rolled and fixed with neutralized PFA followed by H&E staining. After that, the pathologists from WuXi clinical pathological analysis platform, who were blinded to animal ID, reviewed the H&E staining and scored. […]

CC(C)N1Cc2cc(C(F)(F)F)ncc2-c2cnc(NCc3c(F)ccc4c3CCO4)n3cnc(c23)C1=O [Cpd. 73, 12-(((5-fluoro-2,3-dihydrobenzofuran-4-yl)methyl)amino)-4-isopropyl-7-(trifluoromethyl)-4,5-dihydro-3H-2,4,8,11,12a-pentaazabenzo[4,5]cycloocta[1,2,3-cd]inden-3-one]
decrease in H3K27me3 level ([1]; 3 mg/kg po qd×5 days, vs vehicle): 21.2%
decrease in H3K27me3 level ([1]; 10 mg/kg po qd×5 days, vs vehicle): 18.7%
decrease in H3K27me3 level ([1]; 30 mg/kg po qd×5 days, vs vehicle): 21.6%
decrease in H3K27me3 level ([1]; 90 mg/kg po qd×5 days, p<0.01 vs vehicle): 39.7%
pathological score (H&E, colon) ([2]; day 8, vehicle 10.10±0.18): 8.30±0.54
colon density (colon weight/colon length) ([2]; vehicle 50.88±2.53): 41.86±2.57
